Experimental data: patent publication US12414931B1 (priority 2024, dated 2025)

Key:
MDA-MB-231 cells [1] = test system: MDA-MB-231 cells
KGA = target: T1, KGA (Homo sapiens, UniProt O94925); format: biochemical
T1 construct: His6 (C); made in house; host or cells: E. coli Rosetta (DE3), pET28a(+)
T1 sequence (O94925 72-598): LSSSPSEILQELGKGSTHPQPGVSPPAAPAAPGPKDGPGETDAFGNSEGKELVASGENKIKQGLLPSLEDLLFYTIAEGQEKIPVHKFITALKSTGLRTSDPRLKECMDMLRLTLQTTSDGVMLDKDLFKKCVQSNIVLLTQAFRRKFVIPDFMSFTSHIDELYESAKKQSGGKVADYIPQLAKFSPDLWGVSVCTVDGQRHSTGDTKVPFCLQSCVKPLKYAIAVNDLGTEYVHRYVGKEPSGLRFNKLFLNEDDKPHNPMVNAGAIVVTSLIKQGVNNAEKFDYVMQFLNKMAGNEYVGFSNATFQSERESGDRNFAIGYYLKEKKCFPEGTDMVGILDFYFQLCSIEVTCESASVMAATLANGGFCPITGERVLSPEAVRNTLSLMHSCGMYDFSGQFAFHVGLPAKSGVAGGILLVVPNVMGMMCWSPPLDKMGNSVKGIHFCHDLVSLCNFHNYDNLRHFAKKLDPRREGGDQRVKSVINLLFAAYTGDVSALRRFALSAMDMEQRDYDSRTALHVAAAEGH

MDA-MB-231 cells [2] = test system: MDA-MB-231 cells; remark: listed apart in the source
purified KGA = purified KGA (Homo sapiens, UniProt O94925); conditions: read-out: apparent binding affinity (Kd)
MCF12A cells = format: cell-based, human; conditions: read-out: IC50 cell viability, normal breast cells
purified recombinant KGA = target: T2, purified recombinant KGA (Homo sapiens, UniProt O94925); assay: KGA activity inhibition assay, spectrophotometric (NADH production at 340 nm); format: biochemical; conditions: 37° C., 30 min, 5 mM glutamine
T2 construct: His6 (C); made in house; host or cells: E. coli Rosetta (DE3), pET28a(+)
T2 sequence (O94925 72-598): T1 sequence (O94925 72-598)

Compound: NC(CC[As](O)O)C(=O)O (stereo not shown) [R-AST-OH, trivalent hydroxyarsinothricin]
- cell permeability (uptake of arsenicals) (MDA-MB-231 cells [1]): lowest permeability
- IC50 (KGA; luminescent assay, 15 min preincubation with KGA, read-out: IC50 against KGA): 2 µM
- fold more effective inhibitor of KGA than Rox(III) (KGA; ratio of IC50 values): 4.5 fold
- fold more effective inhibitor of KGA than pentavalent AST-OH (KGA; ratio of IC50 values): 125 fold
- cells that lost viability (MDA-MB-231 cells [2]; 10 µM): approximately 64%
- IC50 (MDA-MB-231 cells [2]; read-out: IC50 cell viability): 5 µM
- Kd (purified KGA): 40 µM
- IC50 (MCF12A cells): 75 µM
- cells that lost viability (HCC1569 cells; 10 µM): ~47%
- IC50 (HCC1569 cells; read-out: IC50 cell viability): 3 µM

Compound: NC(CCP(=O)(O)O)C(=O)O (stereo not shown) [AP4, 2-amino-4-phosphonobutyric acid]
- half-maximal inhibitory concentration (IC50) against KGA (purified recombinant KGA): submillimolar range

Compound: N[C@H](CC[As](=O)(O)O)C(=O)O [AST-OH, hydroxyarsinothricin]
- half-maximal inhibitory concentration (IC50) against KGA (purified recombinant KGA): submillimolar range

Compound: [N-]=[N+]=CC(=O)CC[C@H](N)C(=O)O [DON, 6-diazo-5-oxo-L-norleucine]
- half-maximal inhibitory concentration (IC50) against KGA (purified recombinant KGA): submillimolar range
